By IC50 is commonly meant the point on the concentration scale where inhibition reaches its midpoint.

Among the data in US20230174530A1, “N-(PHENYLAMINOCARBONYL) TETRAHYDRO-ISOQUINOLINES AND RELATED COMPOUNDS AS MODULATORS OF GPR65” (PATHIOS THERAPEUTICS LIMITED, priority 2020, published 2023) are IC50 values, retold here.

The structures appear in SMILES notation.

T1 sequence (Q8IYL9 whole entry): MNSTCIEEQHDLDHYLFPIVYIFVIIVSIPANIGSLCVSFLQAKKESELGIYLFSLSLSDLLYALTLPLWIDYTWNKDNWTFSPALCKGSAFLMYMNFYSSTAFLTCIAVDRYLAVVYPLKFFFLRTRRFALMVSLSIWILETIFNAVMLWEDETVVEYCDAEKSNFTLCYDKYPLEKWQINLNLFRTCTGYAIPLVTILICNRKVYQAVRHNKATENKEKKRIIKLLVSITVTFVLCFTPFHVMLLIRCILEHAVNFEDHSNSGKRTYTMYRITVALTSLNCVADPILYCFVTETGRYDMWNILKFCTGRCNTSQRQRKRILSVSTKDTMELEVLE

The assay addresses T1, human recombinant GPR65 (Homo sapiens, UniProt Q8IYL9).
T1 construct: host or cells: 1321N1 human astrocytoma cells (1321N1-hrGPR65)
As to the kind of experiment: Human GPR65 cAMP HTRF antagonist assay. The format is cell-based. The following applies: 1321N1-hrGPR65 cells stimulated at assay pH 7.2; suppression of cAMP rise; read-out: hGPR65 IC50. Summed up:
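1321N1 astrocytoma cells stably expressing human GPR65, 2,000 per well in KRH with 1 mM IBMX and 200 μM EDTA, preincubated 30 min with compound at RT. Acid stimulation at pH 7.2 for 30 min, pH 7.9 as control. cAMP read by HTRF 665/620 ratio; IC50 from normalised 4-parameter fit.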
In general terms: TR-FRET usually uses a lanthanide donor and a delayed reading to cut background.
`O=C(Nc1ccc(C(F)(F)F)c(Cl)c1)N1CCc2cccnc2C1` [Compound 19, N-(3-Chloro-4-(trifluoromethyl)phenyl)-5,8-dihydro-1,7-naphthyridine-7(6H)-carboxamide]: the IC50 was in the range of 0.5 to 5 µM. To `N#Cc1ccc2c(c1)CCN(C(=O)Nc1ccc(Cl)c(Cl)c1)C2` [Compound 37, 6-Cyano-N-(3,4-dichlorophenyl)-3,4-dihydroisoquinoline-2(1H)-carboxamide] belongs less than 0.5 µM.

`O=C(Nc1ccc(C(F)(F)F)c(Cl)c1)N1CCc2ccc(Cl)cc2C1` [Compound 30, 7-Chloro-N-(3-chloro-4-(trifluoromethyl)phenyl)-3,4-dihydroisoquinoline-2(1H)-carboxamide]: the IC50 was less than 0.5 µM.

Regarding `Nc1cc2c(cn1)CCN(C(=O)Nc1ccc(C(F)(F)F)c(Cl)c1)C2` [Compound 83, 7-Amino-N-(3-chloro-4-(trifluoromethyl)phenyl)-3,4-dihydro-2,6-naphthyridine-2(1H)-carboxamide], the IC50 is less than 0.5 µM. The same measure for `O=C(Nc1ccc(C(F)(F)F)c(Cl)c1)N1CCc2cnc(F)cc2C1` [Compound 87, N-(3-Chloro-4-(trifluoromethyl)phenyl)-7-fluoro-3,4-dihydro-2,6-naphthyridine-2(1H)-carboxamide]: 0.5 to 5 µM; for `O=C(Nc1cc(Cl)c(Cl)cc1F)N1CCc2cc(=O)[nH]cc2C1` [Compound 112, N-(4,5-Dichloro-2-fluorophenyl)-6-oxo-3,4,6,7-tetrahydro-2,7-naphthyridine-2(1H)-carboxamide]: less than 0.5 µM. Regarding `O=C(Nc1ccc(C(F)(F)F)c(Cl)c1)N1CCc2cc(F)ncc2C1` [Compound 104, N-(3-chloro-4-(trifluoromethyl)phenyl)-6-fluoro-3,4-dihydro-2,7-naphthyridine-2(1H)-carboxamide], the IC50 is less than 0.5 µM. To `COC(=O)c1ccc2c(c1)CCN(C(=O)Nc1ccc(Cl)c(Cl)c1)C2` [Compound 114, Methyl 2-((3,4-dichlorophenyl)carbamoyl)-1,2,3,4-tetrahydroisoquinoline-6-carboxylate] belongs less than 0.5 µM; to `O=C(Nc1ccc(Cl)c(C(F)(F)F)c1)N1CCc2oncc2C1` [Compound 25, N-(4-Chloro-3-(trifluoromethyl)phenyl)-6,7-dihydroisoxazolo[4,5-c]pyridine-5(4H)-carboxamide], 0.5 to 5 µM. The same measure for `O=C(Nc1ccc(Cl)c(C(F)(F)F)c1)N1CCc2cccc(F)c2C1` [Compound 46, N-(4-Chloro-3-(trifluoromethyl)phenyl)-8-fluoro-3,4-dihydroisoquinoline-2(1H)-carboxamide]: greater than 5 µM; for `COc1ccc2c(c1)CCN(C(=O)Nc1ccc(C(F)(F)F)c(Cl)c1)C2` [Compound 67, N-(3-Chloro-4-(trifluoromethyl)phenyl)-6-methoxy-3,4-dihydroisoquinoline-2(1H)-carboxamide]: 0.5 to 5 µM; for `O=C(Nc1ccc(Cl)c(Cl)c1)N1CCc2cn3ncnc3cc2C1` [Compound 121, N-(3,4-Dichlorophenyl)-6,7-dihydro-[1,2,4]triazolo[1,5-b][2,6]naphthyridine-8(9H)-carboxamide]: greater than 5 µM.

For the compound `O=C(Nc1ccc(Cl)c(Cl)c1)N1CCc2cc3cncn3cc2C1` [Compound 113, N-(3,4-Dichlorophenyl)-8,9-dihydroimidazo[1,5-b][2,7]naphthyridine-7(6H)-carboxamide], the half-inhibitory concentration (IC50) was less than 0.5 µM. To `Cc1noc(-c2ccc3c(c2)CCN(C(=O)Nc2ccc(Cl)c(Cl)c2)C3)n1` [Compound 140, N-(3,4-Dichlorophenyl)-6-(3-methyl-1,2,4-oxadiazol-5-yl)-3,4-dihydroisoquinoline-2(1H)-carboxamide] belongs less than 0.5 µM.
